Measurements as given in patent US12233161B1, “Lipids and lipid nanoparticle formulations” (LONGUIDE BIOPHARMA CORPORATION, priority 2024, dated 2025).

System: mice
Assay: In vivo delivery of FLuc-mRNA lipid nanoparticles in mice, in vivo imaging (IVIS)
Conditions: Fluc-mRNA LNP
Description: After the preparation was completed, the preparation was injected intramuscularly (mice rectus femoris muscle of the thigh), intravenously (mice tail vein), or intraperitoneal injection or subcutaneous injection (subcutaneous on the back), with approximately 75 μL per mouse, for a total of 3 mice. After a certain time of injection, in vivo imaging (PerkinElmer, IVIS Lumina III) was performed. 10-15 minutes before imaging, 200 μL of 15 mg/mL D-Luciferin working solution was injected intraperitoneally, and the imaging analysis was performed using an in vivo imager.

[1] = route IM, organ not given, formulation, molar ratio and N/P as in the table
[2] = route IV, organ: body, formulation, molar ratio and N/P as in the table
[3] = route IV, organ: liver, formulation, molar ratio and N/P as in the table
[4] = route IV, organ: lung, formulation, molar ratio and N/P as in the table
[5] = route IV, organ: spleen, formulation, molar ratio and N/P as in the table
[6] = route IM, 1 h (live), DSPE-PEG5000:DSPC:Chol:compound 1.40:11.15:38.95:48.50, N/P 30
[7] = route IM, 1 h (lung), DSPE-PEG5000:DSPC:Chol:compound 1.40:11.15:38.95:48.50, N/P 30
[8] = route IM, 1 h (spleen), DSPE-PEG5000:DSPC:Chol:compound 1.40:11.15:38.95:48.50, N/P 30
[9] = route IM, 2 h (live), DSPE-PEG5000:DSPC:Chol:compound 1.40:11.15:38.95:48.50, N/P 30
[10] = route IM, 2 h (lung), DSPE-PEG5000:DSPC:Chol:compound 1.40:11.15:38.95:48.50, N/P 30
[11] = route IM, 2 h (spleen), DSPE-PEG5000:DSPC:Chol:compound 1.40:11.15:38.95:48.50, N/P 30
[12] = route IM, 3 h (live), DSPE-PEG5000:DSPC:Chol:compound 1.40:11.15:38.95:48.50, N/P 30
[13] = route IM, 3 h (lung), DSPE-PEG5000:DSPC:Chol:compound 1.40:11.15:38.95:48.50, N/P 30
[14] = route IM, 3 h (spleen), DSPE-PEG5000:DSPC:Chol:compound 1.40:11.15:38.95:48.50, N/P 30
[15] = route IM, 6 h (live), DSPE-PEG5000:DSPC:Chol:compound 1.40:11.15:38.95:48.50, N/P 30
[16] = route IM, 6 h (lung), DSPE-PEG5000:DSPC:Chol:compound 1.40:11.15:38.95:48.50, N/P 30
[17] = route IM, 6 h (spleen), DSPE-PEG5000:DSPC:Chol:compound 1.40:11.15:38.95:48.50, N/P 30

Question: For `CCCCCCCCCCCCNC(=O)C(O)CN(CCCN(C)CCN(C)CCCN(CC(O)C(=O)NCCCCCCCCCCCC)CC(O)C(=O)NCCCCCCCCCCCC)CC(O)C(=O)NCCCCCCCCCCCC` (centres unmarked) [Compound L0365], which IVIS [1] is on record?
Answer: 1.24E+06

Question: How did the IVIS [1] turn out when `CCCCCCCCCCCCNC(=O)C(O)CN(CCCN(C)CCN(C)CCCN(CC(O)C(=O)NCCCCCCCCCCCC)CC(O)C(=O)NCCCCCCCCCCCC)CC(O)C(=O)NCCCCCCCCCCCC` (centres unmarked) [Compound L0366] was run?
Answer: 4.56E+05

Question: For `CCCCCCC(CCCCC)C(=O)OCCCCNC(=O)C(O)CN(CCCN(C)CCCCN(CCC(O)C(=O)NCCOC(=O)C(CCCCCC)CCCCCC)C(O)C(=O)NCCCCOC(=O)C(CCCCCC)CCCCCC)CC(O)C(=O)NCCCCOC(=O)C(CCCCC)CCCCCC` (centres unmarked) [Compound L0367], which IVIS (route IH, organ: body, DSPE-PEG5000:DSPC:Chol:compound 1.40:11.15:38.95:48.50, N/P 30) is on record?
Answer: 1.65E+07

Question: What about the IVIS (route IH, organ: spleen, DSPE-PEG5000:DSPC:Chol:compound 1.40:11.15:38.95:48.50, N/P 30) of the same molecule?
Answer: 8.20E+03

Question: What about the IVIS [1] of the same molecule?
Answer: 3.40E+07

Question: What about the IVIS [2] of the same molecule?
Answer: 4.05E+07

Question: What about the “% of organ targeting” value [3] of the same molecule?
Answer: 3.91%

Question: What about the IVIS [3] of the same molecule?
Answer: 3.83E+06

Question: And the “% of organ targeting” value [4]?
Answer: 45.55%

Question: And the IVIS [4]?
Answer: 4.47E+07

Question: What about the “% of organ targeting” value [5] of the same molecule?
Answer: 37.59%

Question: And the IVIS [5]?
Answer: 3.69E+07

Question: Which results are given for `CCCCCCC(CCCCCC)C(=O)OCCCCNC(=O)C(O)CN(CCN(C)CCN(CC(O)C(=O)NCCCCOC(=O)C(CCCCCC)CCCCCC)CC(O)C(=O)NCCCCOC(=O)C(CCCCCC)CCCCCC)CC(O)C(=O)NCCCCOC(=O)C(CCCCCC)CCCCCC` (centres unmarked) [Compound L0368]?
Answer: % of organ targeting [6]: 39.42%; IVIS [6]: 3.95E+05; % of organ targeting [7]: 5.12%; IVIS [7]: 5.13E+04; IVIS (route IM, 1 h (muscle), DSPE-PEG5000:DSPC:Chol:compound 1.40:11.15:38.95:48.50, N/P 30): 8.19E+07; % of organ targeting [8]: 42.92%; IVIS [8]: 4.30E+05; % of organ targeting [9]: 70.91%; IVIS [9]: 6.97E+06; % of organ targeting [10]: 1.59%; IVIS [10]: 1.57E+05; IVIS (route IM, 2 h (muscle), DSPE-PEG5000:DSPC:Chol:compound 1.40:11.15:38.95:48.50, N/P 30): 2.25E+08; % of organ targeting [11]: 26.79%; IVIS [11]: 2.64E+06; % of organ targeting [12]: 51.88%; IVIS [12]: 5.57E+06; % of organ targeting [13]: 1.77%; IVIS [13]: 1.89E+05; IVIS (route IM, 3 h (muscle), DSPE-PEG5000:DSPC:Chol:compound 1.40:11.15:38.95:48.50, N/P 30): 5.02E+08; % of organ targeting [14]: 27.68%; IVIS [14]: 2.97E+06; % of organ targeting [15]: 52.87%; IVIS [15]: 1.53E+07; % of organ targeting [16]: 1.75%; IVIS [16]: 5.04E+05; IVIS (route IM, 6 h (muscle), DSPE-PEG5000:DSPC:Chol:compound 1.40:11.15:38.95:48.50, N/P 30): 1.32E+08; % of organ targeting [17]: 42.92%; IVIS [17]: 1.24E+07; IVIS [1]: 9.91E+07; IVIS [2]: 6.34E+07; % of organ targeting [3]: 18.05%; IVIS [3]: 1.00E+07; % of organ targeting [4]: 7.99%; IVIS [4]: 4.43E+06; % of organ targeting [5]: 73.95%; IVIS [5]: 4.10E+07

Question: With `CCCCCCC(CCCCCC)C(=O)OCCCCNC(=O)C(O)CN(CCCN(CC(O)C(=O)NCCCCOC(=O)C(CCCCCC)CCCCCC)CC(O)C(=O)NCCCCOC(=O)C(CCCCCC)CCCCCC)CCCN(CC(O)C(=O)NCCCCOC(=O)C(CCCCCC)CCCCCC)CC(O)C(=O)NCCCCOC(=O)C(CCCCCC)CCCCCC` (centres unmarked) [Compound L0369] as the molecule, how does the IVIS [1] read?
Answer: 6.07E+07

Question: And the IVIS [2]?
Answer: 1.22E+10

Question: What about the “% of organ targeting” value [3] of the same molecule?
Answer: 98.57%

Question: And the IVIS [3]?
Answer: 4.47E+09

Question: And the “% of organ targeting” value [4]?
Answer: 0.75%

Question: What about the IVIS [4] of the same molecule?
Answer: 3.40E+07

Question: What about the “% of organ targeting” value [5] of the same molecule?
Answer: 0.68%

Question: And the IVIS [5]?
Answer: 3.07E+07
